In paper PMC4028696, “Development of a screen to identify selective small molecules active against patient-derived metastatic and chemoresistant breast cancer cells” (Breast Cancer Research : BCR, 2013):

Experiments:
[1] = Dose response assay, ATPlite viability, four days; assay type: cell-based; details: human, MCF-10A cells, 200 μM C-6, read-out: cells still viable
Method: (§1) Cells were seeded in white 96-well plates (Costar, Tewksbury, MA, USA) in 100 μL of their respective media at varying densities to achieve 80% to 90% confluency after five days in culture. The compounds dissolved in DMSO were diluted in their corresponding media containing 2% FBS and an EP Motion 5075 (Eppendorf North America, Hauppauge, NY, USA) liquid handler was utilized to perform a serial dilution. […] After the cells were cultured for 24 hours, the media were aspirated and the cells were treated with the compounds and vehicle controls in triplicate. After four days of treatment, viability was determined utilizing the ATPlite 1step assay system (Perkin Elmer, Waltham, MA, USA) according to the manufacturer's instructions. Luminescence measurements were acquired utilizing a Perkin Elmer 2104 EnVision plate reader. Raw luminescence values were normalized to the DMSO vehicle control wells.

hTERT-HMEC cells [2] = assay: Dose response assay, ATPlite viability, four days; assay type: cell-based, human
Method: as §1

MDA-MB-231 cells [3] = assay: Dose response assay, ATPlite viability, four days; assay type: cell-based, human; details: Homo sapiens, 96 h; MDA-MB-231, four days of treatment, ATP viability
Method: as §1

PE1007070 cells [4] = assay: Dose response assay, ATPlite viability, four days; assay type: cell-based, human; details: Homo sapiens, 96 h, PE1007070, four days of treatment, ATP viability
Method: as §1

PE904557a cells = assay: Dose response assay, ATPlite viability, four days; assay type: cell-based, human; details: Homo sapiens, 96 h, four days of treatment, ATP viability, N/A = data could not be fitted
Method: as §1

T47D cells = assay: Dose response assay, ATPlite viability, four days; assay type: cell-based, human; details: Homo sapiens, 96 h, four days of treatment, ATP viability
Method: as §1

MCF-7 cells [5] = assay: Dose response assay, ATPlite viability, four days; assay type: cell-based, human; details: Homo sapiens, MCF7, 96 h; MCF-7, four days of treatment, ATP viability
Method: as §1

PE1008032 cells [6] = assay: Dose response assay, ATPlite viability, four days; assay type: cell-based, human; details: Homo sapiens, 96 h, PE1008032, four days of treatment, ATP viability
Method: as §1

MDA-MB-231 cells [7] = assay: AAF-Glo released protease (cell death) assay; assay type: cell-based, human; details: MDA-MB-231, 30 μM, 24 to 120 hours
Method: (§2) Adherent cells were seeded in two identical white 96-well plates (Costar) in 100 μL of their respective media at varying densities to achieve 80% to 90% confluency at the end of the assay. After 24 hours, the media were aspirated and the cells were treated with 30 μM C-6 or a matched 0.03% (v/v) DMSO vehicle control in the corresponding media containing 2% FBS. For suspension cultures, cells were first seeded in 75 μL of media. At the start of treatment, 25 μL of a 4× concentration of C-6 or a matched (v/v) DMSO vehicle control was added to each well such that the final volume in each well was 100 μL and the final concentration of C-6 was 30 μM. For the caspase activity assays, additional wells were treated with 1 μM staurosporine. After culturing for the appropriate amount of time, either the AAF-Glo or Caspase-Glo assays (Promega, Madison, WI, USA) were performed on one 96-well plate according to the manufacturer's instructions. For the Caspase-Glo assay, cell viability was determined for the additional 96-well plate utilizing the ATPlite 1step assay system (Perkin Elmer) according to the manufacturer's instructions. For the AAF-Glo assay, the total protein in each well of the additional plate was measured using the BCA protein assay kit (Peirce, Rockford, IL, USA). Luminescence measurements were acquired utilizing a Perkin Elmer 2104 EnVision plate reader. Raw luminescence values for each assay were normalized to the DMSO vehicle control wells. The values for the Caspase-Glo or AAF-Glo assays were then normalized to the ATPlite values or total protein, respectively, in order to account for differences in cell numbers and were plotted as an average ± SD of four wells per condition.

MCF-10A cells = assay: AAF-Glo released protease (cell death) assay; assay type: cell-based, human; details: 30 μM, 24 to 120 hours, vs DMSO
Method: as §2

MCF-7 cells [8] = assay: AAF-Glo released protease (cell death) assay; assay type: cell-based, human; details: MCF-7, 30 μM, 24 to 120 hours, vs DMSO
Method: as §2

PE1008032 cells [9] = assay: AAF-Glo released protease (cell death) assay; assay type: cell-based, human; details: PE1008032, 30 μM, 24 to 120 hours
Method: as §2

[10] = tested on: PE cells from three different patients; assay: AAF-Glo released protease (cell death) assay; assay type: cell-based, human; details: 30 μM, 24 to 120 hours, vs DMSO
Method: as §2

hTERT-HMEC cells [11] = assay: Live/dead assay, monolayer; assay type: cell-based, human; details: 20 μM, five days
Method: (§3) The hTERT-HMEC and PE1007070 cells were seeded in black wall clear bottom 96-well plates (Greiner Bio-one, Monroe, NC, USA) in 100 μL of modified M87 media at varying densities to achieve 80% to 90% confluency at the end of the assay. After 24 hours, the media were aspirated and the cells were treated with 20 μM C-6 or the corresponding 0.02% (v/v) DMSO vehicle control. After culturing for five days, the viability and cytotoxicity was determined with the Live/dead assay (Life Technologies) according to the manufacturer's instructions. Briefly, the media were aspirated and the cells were treated with 4 μM Calcein-AM and 8 μM Ethidium homodimer-1 diluted in (D)MEM/F12 for 30 minutes at 37°C. Subsequent imaging was performed with an IX81 microscope (Olympus, Center Valley, PA, USA) running Slide Book 5.0 software (Intelligent Imaging Innovations, Denver, CO, USA).

PE1007070 cells [12] = assay: Live/dead assay, monolayer; assay type: cell-based, human; details: 20 μM, five days, vs DMSO
Method: as §3

EC50 (MDA-MB-231 cells [3]): 10.5 µM | EC50 (T47D cells): 8.29 µM | EC50 (MCF-7 cells [5]): 11 µM
Compound: COc1cc(OC)cc(C(C)c2ccc(NC(=O)OC(C)(C)C)cc2)c1 (stereo not drawn) [C-6]
viability at 4 days, 200 μM [1]: > 70% | effect on viability (hTERT-HMEC cells [2]): did not significantly reduce the viability | EC50 (PE1007070 cells [4]): 24.4 µM | EC50 (PE904557a cells): 75.7 µM | EC50 (PE1008032 cells [6]): 33.3 µM | relative AAF-Glo activity (MDA-MB-231 cells [7]): did not have increased AAF-Glo activity | relative AAF-Glo activity (MCF-10A cells): did not cause an increase | relative AAF-Glo activity (MCF-7 cells [8]): significant increase | relative AAF-Glo activity (PE1008032 cells [9]): did not have increased AAF-Glo activity | relative AAF-Glo activity [10]: significant increase | morphology and dead (ethidium positive) cells (hTERT-HMEC cells [11]): did not induce a gross morphological phenotype in the hTERT-HMECs or a significant increase in dead (ethidium bromide positive) cells | number of dead cells (PE1007070 cells [12]): led to an increase in the number of dead cells
